Assay [1] has as its target T1, recombinant human FAPα (rhFAPα) (Homo sapiens, UniProt Q12884).
T1 construct: purchased R&S system (so in the source)
T1 sequence (Q12884 1-760): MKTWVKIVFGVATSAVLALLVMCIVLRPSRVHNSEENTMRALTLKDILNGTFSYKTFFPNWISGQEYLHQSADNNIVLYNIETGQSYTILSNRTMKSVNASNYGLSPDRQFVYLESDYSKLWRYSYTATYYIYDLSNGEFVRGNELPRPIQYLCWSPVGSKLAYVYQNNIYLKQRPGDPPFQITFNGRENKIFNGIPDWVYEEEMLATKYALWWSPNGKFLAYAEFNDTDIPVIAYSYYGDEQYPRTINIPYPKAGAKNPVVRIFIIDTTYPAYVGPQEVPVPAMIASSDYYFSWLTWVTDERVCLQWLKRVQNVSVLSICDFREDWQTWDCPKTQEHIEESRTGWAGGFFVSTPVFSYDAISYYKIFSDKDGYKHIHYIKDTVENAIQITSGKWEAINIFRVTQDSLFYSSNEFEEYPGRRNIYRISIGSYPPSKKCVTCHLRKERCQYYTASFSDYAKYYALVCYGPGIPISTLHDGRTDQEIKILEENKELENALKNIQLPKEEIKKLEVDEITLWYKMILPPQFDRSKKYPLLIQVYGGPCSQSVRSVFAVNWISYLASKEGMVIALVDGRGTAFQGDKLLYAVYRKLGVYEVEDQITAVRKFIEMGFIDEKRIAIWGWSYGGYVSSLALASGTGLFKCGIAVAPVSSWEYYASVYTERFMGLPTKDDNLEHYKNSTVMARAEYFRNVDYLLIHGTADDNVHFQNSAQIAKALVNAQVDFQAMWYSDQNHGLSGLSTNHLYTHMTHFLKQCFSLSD
Description: FAPα enzymatic endopeptidase (collagenase) activity assay. Particulars: DQ collagen substrate, read-out: rhFAPα (endo IC50). The class given is biochemical. The protocol:
FAPα enzymatic endopeptidase (collagenase) activity assay. […] All measurements were performed as a single point.

Assay [2] deals with T2, circulating FAPα from hamster plasma (Mesocricetus auratus, UniProt A0ABM2XF29).
T2 sequence (A0ABM2XF29 24-761): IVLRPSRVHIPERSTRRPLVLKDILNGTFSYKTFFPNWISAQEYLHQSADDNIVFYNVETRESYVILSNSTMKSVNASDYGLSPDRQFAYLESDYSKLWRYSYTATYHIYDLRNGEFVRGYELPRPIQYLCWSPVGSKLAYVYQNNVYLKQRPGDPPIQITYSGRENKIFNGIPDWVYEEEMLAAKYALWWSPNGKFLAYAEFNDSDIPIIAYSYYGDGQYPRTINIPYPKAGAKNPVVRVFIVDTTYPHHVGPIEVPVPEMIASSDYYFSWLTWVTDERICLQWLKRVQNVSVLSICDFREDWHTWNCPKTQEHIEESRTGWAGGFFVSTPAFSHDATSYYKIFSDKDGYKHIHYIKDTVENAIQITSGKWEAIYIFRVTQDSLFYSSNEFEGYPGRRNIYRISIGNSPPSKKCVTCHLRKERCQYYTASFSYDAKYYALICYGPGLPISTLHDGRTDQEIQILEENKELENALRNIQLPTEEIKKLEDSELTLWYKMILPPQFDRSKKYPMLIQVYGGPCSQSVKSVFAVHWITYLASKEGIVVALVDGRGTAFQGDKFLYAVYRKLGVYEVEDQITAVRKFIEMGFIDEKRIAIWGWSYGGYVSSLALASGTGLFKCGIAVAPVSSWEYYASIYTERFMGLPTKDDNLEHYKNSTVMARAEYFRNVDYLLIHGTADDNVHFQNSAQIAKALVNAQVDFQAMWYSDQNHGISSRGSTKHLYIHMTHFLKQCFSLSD
As to the kind of experiment: Ex vivo inhibition of circulating FAPα activity from hamster plasma. The class given is biochemical, Golden Syrian hamster. As to the method:
Male Golden Syrian hamsters were provided by National Laboratory Animal Center (NLAC) in Taiwan. The animals were maintained in a hygienic environment under controlled temperature (20-24° C.) and humidity (50%-80%) with 12 hours light/dark cycles. Free access to standard lab diet [MFG (Oriental Yeast Co., Ltd. Japan)] and autoclaved tap water were granted. All aspects of this work including housing, experimentation and disposal of animals were performed in general accordance with the “Guide for the Care and Use of Laboratory Animals: Eighth Edition” (National Academies Press, Washington, D.C., 2011). In addition, the animal care and use protocol was reviewed and approved by the IACUC at Pharmacology Discovery Services Taiwan, Ltd. Immediately after the sacrifice of hamsters, blood samples were collected via terminal cardiac puncture in tubes coated with EDTA-K2, mixed gently, then kept on ice and centrifuged at 2,500×g for 15 minutes at 4° C. After plasma separation, samples were stored at −80° C. in aliquots of 300 μL.
To assay exemplary compounds in hamster plasma, a similar protocol as described for human plasma was performed diluting thawed plasma 1:2 in cFAP buffer. In a 96-well black plate, 5 μl of diluted hamster plasma were mixed with 35 μl of the same buffer and 10 μl of exemplary test compounds at different concentrations or vehicle (DMSO).
Exemplary test compounds were allowed to interact with the enzyme for 15 minutes at 37° C. After pre-incubation, 50 μl of 200 μM PRXS-AMC substrate were added to the all mixtures. All reactions were carried out for 1 h at 37° C. protected from light. AMC release was detected measuring fluorescence at an excitation/emission wavelength of 380/460 nm using a Multifunction Microplate Reader. All measurements were carried out as single point.

The target in assay [3] is T3, recombinant mouse DPPIV (rmDPPIV) (Mus musculus, UniProt P28843).
T3 construct: purchased R&S system (so in the source)
T3 sequence (P28843 whole entry): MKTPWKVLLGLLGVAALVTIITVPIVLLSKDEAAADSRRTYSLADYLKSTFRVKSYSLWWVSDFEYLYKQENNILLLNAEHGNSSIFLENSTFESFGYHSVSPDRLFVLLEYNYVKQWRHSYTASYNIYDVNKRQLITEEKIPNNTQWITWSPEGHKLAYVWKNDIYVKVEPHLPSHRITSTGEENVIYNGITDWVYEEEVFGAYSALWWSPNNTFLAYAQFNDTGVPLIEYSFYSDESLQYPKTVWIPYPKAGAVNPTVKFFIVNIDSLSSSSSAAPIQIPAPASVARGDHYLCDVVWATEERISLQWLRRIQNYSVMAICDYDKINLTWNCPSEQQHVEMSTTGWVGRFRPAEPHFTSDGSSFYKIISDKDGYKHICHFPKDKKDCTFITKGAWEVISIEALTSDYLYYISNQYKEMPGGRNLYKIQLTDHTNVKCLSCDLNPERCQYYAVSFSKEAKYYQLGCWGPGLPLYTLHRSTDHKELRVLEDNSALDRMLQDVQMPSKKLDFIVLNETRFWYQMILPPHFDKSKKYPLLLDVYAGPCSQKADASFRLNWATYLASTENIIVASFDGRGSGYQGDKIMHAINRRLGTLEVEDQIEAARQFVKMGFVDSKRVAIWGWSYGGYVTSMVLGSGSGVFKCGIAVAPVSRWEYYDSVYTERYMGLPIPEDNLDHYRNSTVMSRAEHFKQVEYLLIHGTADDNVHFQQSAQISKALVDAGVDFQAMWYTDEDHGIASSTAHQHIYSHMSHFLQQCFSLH
Description: DPPIV enzymatic activity assay. In kind it is biochemical. Particulars: H-Gly-Pro-pNA substrate.

[4] abbreviates: PRXS-AMC substrate, read-out: FAPα activity in hamster plasma (PRXS-AMC) IC50.
Setting [5] is: read-out: FAPα activity in hamster plasma (PRXS-AMC) IC50, PRXS-AMC substrate.

pIC50: −log10 of the molar value. Read-outs that look alike come from different tables or passages of the source.

As to `N#C[C@@H]1CC(F)(F)CN1C(=O)CNC(=O)c1c[nH]c(=O)cc1-c1ccc(F)cc1` [Compound 109, (S)—N-(2-(2-cyano-4,4-difluoropyrrolidin-1-yl)-2-oxoethyl)-4-(4-fluorophenyl)-6-oxo-1,6-dihydropyridine-3-carboxamide], the negative-log IC50 (pIC50) in assay [1] and in assay [2] (setting [4]) was more than 6.00 throughout. Consider `N#C[C@@H]1CC(F)(F)CN1C(=O)CNC(=O)c1ccncc1-c1ccccc1` [Compound 13, (S)—N-(2-(2-cyano-4,4-difluoropyrrolidin-1-yl)-2-oxoethyl)-3-phenylisonicotinamide], for which the pIC50 in assay [1] is more than 6.00; in assay [2] (setting [5]) it was more than 6.00; in assay [3], less than 5.00. For the molecule `N#C[C@@H]1CC(F)(F)CN1C(=O)CNC(=O)c1ccncc1C1CC1` [Compound 24, (S)—N-(2-(2-cyano-4,4-difluoropyrrolidin-1-yl)-2-oxoethyl)-3-cyclopropylisonicotinamide], the pIC50 in assay [1] and in assay [2] (setting [5]) was more than 6.00 in each case. As for `N#C[C@@H]1CC(F)(F)CN1C(=O)CNC(=O)c1c[nH]c(=O)c2ccccc12` [Example 1, (S)—N-(2-(2-cyano-4,4-difluoropyrrolidin-1-yl)-2-oxoethyl)-1-oxo-1,2-dihydroisoquinoline-4-carboxamide], the pIC50 in assay [1] is more than 6.00; in assay [3], 5.00 to 6.00. Taken in the same sequence, the figures for `N#C[C@@H]1CC(F)(F)CN1C(=O)CNC(=O)c1c[nH]c(=O)c(-c2ccccc2)c1` [Compound 14, (S)—N-(2-(2-cyano-4,4-difluoropyrrolidin-1-yl)-2-oxoethyl)-6-oxo-5-phenyl-1,6-dihydropyridine-3-carboxamide] were more than 6.00 and less than 5.00. Regarding `N#C[C@@H]1CC(F)(F)CN1C(=O)CNC(=O)c1ccncc1C1=CCNCC1` [Compound 105, (S)—N-(2-(2-cyano-4,4-difluoropyrrolidin-1-yl)-2-oxoethyl)-1′,2′,3′,6′-tetrahydro-[3,4′-bipyridine]-4-carboxamide 2,2,2-trifluoroacetate], the negative logarithm of the IC50 (pIC50) in assay [1] and in assay [2] (setting [5]) was more than 6.00 in each case. For the molecule `C=C(c1ccccc1)c1cnccc1C(=O)NCC(=O)N1CC(F)(F)C[C@H]1C#N` [Compound 122, (S)—N-(2-(2-cyano-4,4-difluoropyrrolidin-1-yl)-2-oxoethyl)-3-(1-phenylvinyl)isonicotinamide], the pIC50 in assay [2] (setting [4]) is more than 6.00.

On to `N#C[C@@H]1CC(F)(F)CN1C(=O)CNC(=O)c1ccncc1-c1ccc(F)cc1` [Compound 52, (S)—N-(2-(2-cyano-4,4-difluoropyrrolidin-1-yl)-2-oxoethyl)-3-(4-fluorophenyl)isonicotinamide], for which the negative-log IC50 (pIC50) in assay [2] (setting [5]) is more than 6.00.

Values taken from patent publication US11780821B2, “Inhibitors of fibroblast activation protein” (Praxis Biotech LLC, priority 2017, dated 2023).
